In patent US12084430B2, “Tricyclic urea compounds as JAK2 V617F inhibitors” (Incyte Corporation, priority 2022, dated 2024):

Assays:
[1] = tested on: STAT5 (Tyr694) phosphorylation in SET-2 cells; test: STAT5 (Tyr694) phosphorylation cell based assay; details: Homo sapiens, pSTAT5, 2 hours, read-out: SET2 IC50
Protocol: Example E. STAT5 (Tyr694) Phosphorylation Cell Based Assay
SET-2 cells was purchased from DSMZ (Germany). RPMI1640 medium, Fetal Bovine Serum and 384-white sold flat-bottom small volume plate were purchased from Thermo Fisher Scientific (Waltham, MA). Phospho-STAT5 (Tyr694) HTRF kit was purchased from Perkin Elmer (Waltham, MA).
SET-2 cells were cultured in RPMI media with 20% FBS at 37° C. in humidified incubator supplied with 5% CO2. On the day of assay, the cells were centrifuged to remove the culture media and resuspended with prewarmed RPMI with 10% FBS. Testing compounds were prepared by serial dilution in DMSO and 50 nL/well test compounds were transferred to the 384 white low volume cell culture plate (Greiner Bio-one) by ECHO liquid handler (Labcyte). The cells were then dispensed with Multidrop (Thermo Fisher, Waltham, MA) at 10 μL/well (7×10^6 cells/mL) with 0.5% DMSO in the final assay. After the treated cells were incubated for 2 hours at 37° C./5% CO2 incubator, 4 μL/well supplemented lysis buffer (100× blocking buffer diluted 25 fold in 4× lysis buffer, Perkin Elmer) were added and incubated at room temperature for 90 min on orbital shaker at 600 rpm. Phospho-STAT5 Cryptate antibody and Phospho-STAT5 d2 antibody (1:1 vol/vol) were premixed and diluted 20 fold with in the detection buffer (Perkin Elmer). 4 μL of the premixed antibody solution were added to each well followed with 24 hours incubation at room temperature on orbital shaker at 600 rpm. The product activity was determined by measuring the fluorescence at 620 nm and 665 nm on Pherastar microplate reader (BMG Labtech). A ratio is calculated (665/620) for each well. Wells with DMSO only served as the positive controls and wells containing high concentration of control compound were used as negative controls. IC50 determination was performed by fitting the curve of percent control activity versus the log of the compound concentration using the GraphPad Prism 7.0 software.

[2] = In vivo pharmacokinetics, rat; parameters: species or system Sprague Dawley rats; details: male, Sprague Dawley, plasma, oral 3.0 mg/kg
Protocol: Example H. In Vivo Pharmacokinetics
Test compounds were administered to male Sprague Dawley rats or male and female Cynomolgus monkeys intravenously or via oral gavage. For intravenous (IV) dosing, test compounds were dosed at 1 mg/kg using a formulation of 10% dimethylacetamide (DMAC), 10% propylene glycol (PG) in acidified saline via IV bolus for rat or 10 min IV infusion for monkey. For oral (PO) dosing, test compounds were dosed at 3.0 mg/kg using 5% DMAC in 0.5% methylcellulose in citrate buffer (pH˜2.5). Blood samples were collected at predose and various time points up to 24 hours postdose. All blood samples were collected using EDTA as the anticoagulant and centrifuged to obtain plasma samples. The plasma concentrations of test compounds were determined by LC-MS/MS methods. The measured plasma concentrations were used to calculate PK parameters by standard noncompartmental methods using Phoenix® WinNonlin software program (version 8.0, Pharsight Corporation) or similar software. In rats and monkeys, cassette dosing of test compounds were conducted to obtain preliminary PK parameters. In vivo pharmacokinetic experiments with male beagle dogs may be performed under the conditions described above.

[3] = tested on: pSTAT5 signaling in SET-2 cells in whole blood; test: pSTAT5 SET-2 whole blood MSD assay; assay type: cell-based; details: Homo sapiens, pSTAT5, 2 hour, read-out: SET2 WB IC50
Protocol: Example F. pSTAT5 SET-2 Whole Blood MSD Assay
SET-2 cells shipped from ABS, RPMI1640 medium, Fetal Bovine Serum from Gibco, Phospho-STAT5a,b Whole Cell Lysate Kit from Mesoscale, Retronectin (Recombinant Human Fibronectin Fragment) from TaKaRa, 96 well cell culture plate flat bottom from Corning, lysis buffer from Cell Signaling Technology, and sterile PBS from Gibco. Whole Blood from by BioIVT.
SET-2 cells were cultured in RPMI media with 20% FBS at 37° C. humidified incubator supplied with 5% CO2. On the day of the assay, 40 uL per well of diluted retronectin working solution was added to sterile 96-well clear flat bottom tissue culture plates (1:200 dilution of retronectin in sterile PBS) and incubated at 37 C for 1 hour. After 1 hour, the retronectin working solution was aspirated and SET-2 cells were seeded at 100,000/well in RPMI+20% FBS. Cells were incubated overnight at 37° C. and 5% CO2. The next day, the medium was removed and 40 μL of diluted compounds in serum-free RPMI and whole blood was added to the cells for a 2 hour incubation at 37° C. and 5% CO2. The compound starting concentration is 20 μM and 2.5 fold serial diluted down to 0.21 nM. The whole blood and compound mixture was then aspirated off using the BlueCat plate washer and washed 1× with PBS. Cells were lysed by adding 40 μL of 3× complete lysis buffer and shaken at room temperature for 45-60 minutes (complete lysis buffer consists of Cell Signaling Technology lysis buffer diluted to 3× and supplemented with Mesoscale's protease inhibitor, phosphatase I inhibitor, and phosphatase II inhibitor). The pSTAT5 MSD plates were blocked by adding 150 μL of Blocker A solution per well to the MSD plates and incubated at room temperature with shaking at 400 rpm for one hour or longer. After blocking, plates were washed 3× with 300 μL/well of IX Tris Wash Buffer. After lysis, added 25 μL per well of lysed sample was added to MSD plate and incubated with shaking at 4° C. wrapped in foil overnight. The next day, plates were washed again and 25 μL/well of diluted 1× Detection Antibody Solution, wrapped in foil, and incubated at room temperature with shaking at 400 rpm for 1 hour. Plates were then washed again and lastly, 150 μL/well of 1× Read Buffer T was added to all wells. Plates were analyzed on MSD Discovery within 5 minutes. […] Data analysis was performed in GraphPad Prism using a 4-parameter fit and data was reported as Average±SD.

Row | Compound | IC50 [1] [nM] | AUC [2] [µM·h] | IC50 [3] [nM]
1 | COC(=O)N[C@@H]1CC[C@@H](n2c(=O)n(C)c3cnc4[nH]c(-c5cn(C)nc5OC)c(-c5cccc(F)c5)c4c32)C1 [Example 3, Methyl ((1R,3R)-3-(8-(3-fluorophenyl)-7-(3-methoxy-1-methyl-1H-pyrazol-4-yl)-3-methyl-2-oxo-3,6-dihydroimidazo[4,5-d]pyrrolo[2,3-b]pyridin-1(2H)-yl)cyclopentyl)carbamate] | 300 to 800 | > 1.5 | 5000 to 7500
2 | COC(=O)N[C@@H]1CC[C@@H](n2c(=O)n(C)c3cnc4[nH]c(-c5cn(C)nc5OC)c(-c5ccc(OC)c(F)c5)c4c32)C1 [Example 4, Methyl ((1R,3R)-3-(8-(3-fluoro-4-methoxyphenyl)-7-(3-methoxy-1-methyl-1H-pyrazol-4-yl)-3-methyl-2-oxo-3,6-dihydroimidazo[4,5-d]pyrrolo[2,3-b]pyridin-1(2H)-yl)cyclopentyl)carbamate] | 300 to 800 | > 1.5 | ≤ 2500
3 | [2H]C([2H])([2H])n1ncc2cc(-c3c(-c4cn(C)nc4OC)[nH]c4ncc5c(c34)n([C@@H]3CC[C@@H](NC(=O)OC)C3)c(=O)n5C)ccc21 [Example 5, Methyl ((1R,3R)-3-(7-(3-methoxy-1-methyl-1H-pyrazol-4-yl)-3-methyl-8-(1-(methyl-d3)-1H-indazol-5-yl)-2-oxo-3,6-dihydroimidazo[4,5-d]pyrrolo[2,3-b]pyridin-1(2H)-yl)cyclopentyl)carbamate] | ≤ 300 | 0.5 to 1.5 | ≤ 2500
4 | [2H]C([2H])([2H])n1cc(-c2[nH]c3ncc4c(c3c2-c2ccc3c(cnn3C([2H])([2H])[2H])c2)n([C@@H]2CC[C@@H](NC(=O)OC)C2)c(=O)n4C([2H])([2H])[2H])c(F)n1 [Example 6, Methyl ((1R,3R)-3-(7-(3-fluoro-1-(methyl-d3)-1H-pyrazol-4-yl)-3-(methyl-d3)-8-(1-(methyl-d3)-1H-indazol-5-yl)-2-oxo-3,6-dihydroimidazo[4,5-d]pyrrolo[2,3-b]pyridin-1(2H)-yl)cyclopentyl)carbamate] | ≤ 300 | 0.5 to 1.5 | ≤ 2500
5 | [2H]C([2H])([2H])n1cc(-c2[nH]c3ncc4c(c3c2-c2ccc(F)cc2)n([C@@H]2CC[C@@H](NC(=O)OC)C2)c(=O)n4C([2H])([2H])[2H])c(F)n1 [Example 7, Methyl ((1R,3R)-3-(7-(3-fluoro-1-(methyl-d3)-1H-pyrazol-4-yl)-8-(4-fluorophenyl)-3-(methyl-d3)-2-oxo-3,6-dihydroimidazo[4,5-d]pyrrolo[2,3-b]pyridin-1(2H)-yl)cyclopentyl)carbamate] | 300 to 800 | > 1.5 | 2500 to 5000
6 | [2H]C([2H])([2H])n1cc(-c2[nH]c3ncc4c(c3c2-c2ccc3c(c2)COC3(C)C)n([C@@H]2CC[C@@H](NC(=O)OC)C2)c(=O)n4C([2H])([2H])[2H])c(F)n1 [Example 8, Methyl ((1R,3R)-3-(8-(1,1-dimethyl-1,3-dihydroisobenzofuran-5-yl)-7-(3-fluoro-1-(methyl-d3)-1H-pyrazol-4-yl)-3-(methyl-d3)-2-oxo-3,6-dihydroimidazo[4,5-d]pyrrolo[2,3-b]pyridin-1(2H)-yl)cyclopentyl)carbamate] | ≤ 300 | > 1.5 | ≤ 2500
7 | [2H]C([2H])([2H])Oc1ccc(-c2c(-c3cn(C([2H])([2H])[2H])nc3F)[nH]c3ncc4c(c23)n([C@@H]2CC[C@@H](NC(=O)OC)C2)c(=O)n4C([2H])([2H])[2H])cc1 [Example 9, Methyl ((1R,3R)-3-(7-(3-fluoro-1-(methyl-d3)-1H-pyrazol-4-yl)-8-(4-(methoxy-d3)phenyl)-3-(methyl-d3)-2-oxo-3,6-dihydroimidazo[4,5-d]pyrrolo[2,3-b]pyridin-1(2H)-yl)cyclopentyl)carbamate] | ≤ 300 | > 1.5 | 2500 to 5000
8 | [2H]C([2H])([2H])n1cc(-c2[nH]c3ncc4c(c3c2-c2ccc(C(C)(C)O)cc2)n([C@@H]2CC[C@@H](NC(=O)OC)C2)c(=O)n4C([2H])([2H])[2H])c(F)n1 [Example 10, Methyl ((1R,3R)-3-(7-(3-fluoro-1-(methyl-d3)-1H-pyrazol-4-yl)-8-(4-(2-hydroxypropan-2-yl)phenyl)-3-(methyl-d3)-2-oxo-3,6-dihydroimidazo[4,5-d]pyrrolo[2,3-b]pyridin-1(2H)-yl)cyclopentyl)carbamate] | ≤ 300 | > 1.5 | ≤ 2500
9 | [2H]C([2H])([2H])n1cc(-c2[nH]c3ncc4c(c3c2-c2ccc3c(cnn3C(C)C)c2)n([C@@H]2CC[C@@H](NC(=O)OC)C2)c(=O)n4C([2H])([2H])[2H])c(F)n1 [Example 13, Methyl ((1R,3R)-3-(7-(3-fluoro-1-(methyl-d3)-1H-pyrazol-4-yl)-8-(1-isopropyl-1H-indazol-5-yl)-3-(methyl-d3)-2-oxo-3,6-dihydroimidazo[4,5-d]pyrrolo[2,3-b]pyridin-1(2H)-yl)cyclopentyl)carbamate] | ≤ 300 | 0.5 to 1.5 | ≤ 2500
10 | [2H]C([2H])([2H])n1cc(-c2[nH]c3ncc4c(c3c2-c2ccc3c(cnn3CC(F)F)c2)n([C@@H]2CC[C@@H](NC(=O)OC)C2)c(=O)n4C([2H])([2H])[2H])c(F)n1 [Example 14, Methyl ((1R,3R)-3-(8-(1-(2,2-difluoroethyl)-1H-indazol-5-yl)-7-(3-fluoro-1-(methyl-d3)-1H-pyrazol-4-yl)-3-(methyl-d3)-2-oxo-3,6-dihydroimidazo[4,5-d]pyrrolo[2,3-b]pyridin-1(2H)-yl)cyclopentyl)carbamate] | ≤ 300 | 0.5 to 1.5 | ≤ 2500
11 | [2H]C([2H])([2H])n1ncc2cc(-c3c(-c4cn(C([2H])([2H])C([2H])([2H])[2H])nc4F)[nH]c4ncc5c(c34)n([C@@H]3CC[C@@H](NC(=O)OC)C3)c(=O)n5C([2H])([2H])[2H])ccc21 [Example 15, Methyl ((1R,3R)-3-(7-(1-(ethyl-d5)-3-fluoro-1H-pyrazol-4-yl)-3-(methyl-d3)-8-(1-(methyl-d3)-1H-indazol-5-yl)-2-oxo-3,6-dihydroimidazo[4,5-d]pyrrolo[2,3-b]pyridin-1(2H)-yl)cyclopentyl)carbamate] | ≤ 300 | 0.5 to 1.5 | ≤ 2500
